How the values were obtained:
prostoglandin E2 (PGE2) = conditions: 300 mg/day, one month; cited from earlier work
[1] = tested on: patients with Familial Adenomatous Polyposis (FAP); test: Randomized, double-blind phase III trial in FAP patients: FAP-related events (efficacy); format: in vivo, human; conditions: for Mean time to first FRE: Kaplan-Meier estimated
Excerpt: Patients were stratified by anatomic site with highest polyp burden and surgical status: (a) post colectomy with rectal or ileal pouch polyposis (longest projected time to first FRE); (b) with duodenal polyposis (intermediate projected time to first FRE); and (c) pre-colectomy (shortest projected time to first FRE) prior to randomization to minimize treatment imbalance.
A stratified randomization procedure was used with stratification based on FAP-related time-to-first-event prognosis (see FIG. 1). The event prognosis groups were represented by 1) best (i.e., longest projected time to first FAP-related event)—rectal/pouch polyposis (Post-colectomy (≥3 years S/P IRA or IPAA with >10 polyps; any polyps >5 mm excised at baseline)), 2) intermediate—duodenal polyposis (Spigelman Stage 3 or 4 or Spigelman Stage 3 or 4 down-staged to Spigelman 1 or 2 within the past 6 months), and 3) worst—pre-colectomy. If a subject has two or more of these disease sites, the most severe prognosis stratum was assigned for randomization (e.g. worst>intermediate>best). Since an individual may have more than one disease site involved, the trial assessed time to any defined FAP-related event in the subject as a whole. In order to minimize potential treatment arm imbalance a centralized randomization process was used to balance among treatment groups within prognostic strata.
Lower GI Endoscopy: Patients were evaluated via colonoscopy, flexible or rigid procto-sigmoidoscopy during the screening phase. Biopsies, ablations, and snare excisions at baseline were performed per the clinician's standard of care. If considered eligible based on inclusion criteria, a grossly normal mucosa biopsy was obtained for baseline polyamine measurement. Still and video documentation of the colon (vide infra) or the residual rectum or entire pouch was also obtained for archiving. Polyp size was determined by visual comparison with biopsy forceps that can measure 5.0-5.5 mm in the fully open position. All randomized patients with an intact colon or rectum/pouch had baseline and on-study lower GI endoscopy procedures as part of this trial.
Upper GI Endoscopy: The duodenum was evaluated by forward-viewing and/or side-viewing gastroscopes (with still and video documentation with closed and open biopsy forceps near mucosa). All randomized patients with a duodenum had baseline and on-study UGI endoscopy as part of this trial. Subjects stratified to the duodenal group must have duodenal biopsies of all polyps 1 cm or larger to determine HGD and histology required for determining Stage 3 or 4 Spigelman status.
FAP-related primary events by disease site were as follows: • 1. Pre-operative, intact colon: Disease progression indicating need for colectomy with IRA or total procto-colectomy • 2. Retained rectum or pouch events include one or more of the following: • a) Excisional intervention by endoscopic snare or trans-anal excision to remove any polyp ≥10 mm in size (per pathology report) and/or pathologic evidence of high grade dysplasia. • b) Disease progression indicating need for proctectomy or pouch resection • 3. Duodenal disease includes the following: • a) Progression in Spigelman Stage to more advanced stage (Stage 2, 3 or 4) • b) Disease progression indicating need for excisional intervention (sub-mucosal resection, trans-duodenal excision, ampullectomy, duodenectomy, Whipple procedure) • c) Development of cancer
At six month intervals (+/−two weeks), subjects underwent repeat upper and lower endoscopy. […] Video recordings of all procedures and qualitative assessments were compared to the exam 6 months prior.

[2] = tested on: patients with Familial Adenomatous Polyposis (FAP); test: Randomized, double-blind phase III trial in FAP patients: safety (adverse events); conditions: for Treatment-related serious adverse events: 1 patient each
tumor putrescine levels = conditions: eflornithine infusion, rat-tumor model; cited from earlier work
[3] = disease site colon, number of subjects
[4] = disease site duodenum, number of subjects
[5] = disease site rectum and pouch, number of subjects
[6] = post-colectomy, rectal/ileal pouch stratum

Which “PGE2 levels in flat mucosa” value (prostoglandin E2 (PGE2)) does the source give for `CC(C)Cc1ccc(C(C)C(=O)O)cc1` (stereo not shown) [ibuprofen] here?
The value was “significant decrease”.

What does the source list for `NCCCC(N)(C(=O)O)C(F)F` (stereo not shown) [Eflornithine, 2,5-diamino-2-(difluoromethyl)pentanoic acid]?
Kaplan-Meier estimated mean time to first FRE ([1]; ITT population): 21.8 months; Event-free rate ([1]; ITT population, cumulative): 59.6%; FREs occurred, percent of patients ([1]; ITT population, cumulative): 40.4%; Surgical FAP-related events, Colon: Event-free proportion ([1]; disease site colon): 76.9%; Surgical FAP-related events, Colon: Colectomy [1, 3]: 0; Surgical FAP-related events, Colon: Disease progression [1, 3]: 3; Surgical FAP-related events, Duodenum: Event-free proportion ([1]; disease site duodenum): 72.7%; Surgical FAP-related events, Duodenum: Disease progression [1, 4]: 3; Surgical FAP-related events, Duodenum: Excisional intervention [1, 4]: 3; Surgical FAP-related events, Duodenum: Spigelman stage progression [1, 4]: 12; Surgical FAP-related events, Rectum and Pouch: Event-free proportion ([1]; disease site rectum and pouch): 87.2%; Surgical FAP-related events, Rectum and Pouch: Disease progression [1, 5]: 5; Surgical FAP-related events, Rectum and Pouch: Proctectomy/pouch resection [1, 5]: 1; FRE type: Duodenal excision ([1]; duodenal polyposis stratum): 2; FRE type: Duodenal excision and Spigelman stage progression ([1]; duodenal polyposis stratum): 1; FRE type: Pouch resection ([1]; duodenal polyposis stratum): 2; FRE type: Spigelman stage progression ([1]; duodenal polyposis stratum): 7; FRE type: ≥10 mm polyp removed in rectum/pouch ([1]; duodenal polyposis stratum): 1; Patients with FRE, % ([1]; duodenal polyposis stratum): (39.4) %; Total FRE ([1]; duodenal polyposis stratum): 13; Mean time to first FRE ([1]; duodenal polyposis stratum): 21.7 months; Risk reduction versus combination ([1]; duodenal polyposis stratum, combination relative to the arm named): 24%; Patients with FRE, % ([1]; duodenal polyposis stratum, listed as eflornithine): 39.4%; Progression of lower gastrointestinal polyposis: surgeries ([1]; human, in vivo): 1; Patients with duodenal polyposis progression who underwent duodenal excisional procedures ([1]; number of patients): 3; FRE type: Pouch resection [1, 6]: 2; FRE type: Proctocolectomy [1, 6]: 1; FRE type: Spigelman stage progression [1, 6]: 1; FRE type: ≥10 mm polyp removed in rectum/pouch [1, 6]: 1; Patients with FRE, % [1, 6]: (41.7) %; Total FRE [1, 6]: 5; Mean time to first FRE [1, 6]: 15.7 months; Risk reduction versus combination ([1]; post-colectomy, rectal/ileal pouch stratum, combination relative to the arm named): None; Patients with FRE, % ([1]; post-colectomy, rectal/ileal pouch stratum, listed as eflornithine): 41.7%; FRE type: Colectomy ([1]; pre-colectomy stratum): 2; FRE type: Colectomy and Spigelman stage progression ([1]; pre-colectomy stratum): 1; FRE type: Spigelman stage progression ([1]; pre-colectomy stratum): 2; Patients with FRE, % ([1]; pre-colectomy stratum): (41.7) %; Total FRE ([1]; pre-colectomy stratum): 5; Mean time to first FRE ([1]; pre-colectomy stratum): 19.7 months; Patients with FRE, % ([1]; pre-colectomy stratum, listed as eflornithine): 41.7%; Risk reduction versus combination ([1]; pre-colectomy stratum, risk reduction for FRE of the combination relative to the arm named): 80%; Event Rate of FAP-related Surgery Events in Lower GI ([1]; subjects with lower GI anatomy): 8/57 (14%); Lower GI surgery events: Need colectomy ([1]; subjects with lower GI anatomy): 3; Lower GI surgery events: Need pouch resection ([1]; subjects with lower GI anatomy): 4; Lower GI surgery events: Need proctectomy ([1]; subjects with lower GI anatomy): 1; Lower GI surgery events: Total Surgical Events ([1]; subjects with lower GI anatomy): 8; Progression of lower gastrointestinal polyposis: polypectomies ([1]; ≥10 mm in size and/or high grade dysplasia): 2; Discontinuations due to AEs, number of patients [2]: 5 patients; Discontinuations due to AEs, percent of patients [2]: 8.8%; TRAE reported by % of patients [2]: 55.4%; Treatment-related hearing adverse events: Hearing loss N [2]: 1; Treatment-related hearing adverse events: Tinnitus N [2]: 1; Treatment-related serious adverse events [2]: stroke; Treatment-related serious adverse events ([2]; listed as CPP-1X): Stroke; Death ([2]; safety population): 0 n (%); Number of patients discontinuing due to a TRAE ([2]; safety population): 3 (5.4) n (%); Number of patients reporting TEAEs ([2]; safety population): 49 (87.5) n (%); Number of patients reporting TEAEs ≥ Grade 3 ([2]; safety population): 17 (30.4) n (%); Number of patients reporting TRAE: Abdominal distension ([2]; safety population): 4 (7.1) n (%); Number of patients reporting TRAE: Abdominal pain ([2]; safety population): 4 (7.1) n (%); Number of patients reporting TRAE: Alopecia ([2]; safety population): 0 n (%); Number of patients reporting TRAE: Decreased appetite ([2]; safety population): 3 (5.4) n (%); Number of patients reporting TRAE: Depression ([2]; safety population): 1 (1.8) n (%); Number of patients reporting TRAE: Diarrhea ([2]; safety population): 5 (8.9) n (%); Number of patients reporting TRAE: Dizziness ([2]; safety population): 3 (5.4) n (%); Number of patients reporting TRAE: Dyspepsia ([2]; safety population): 3 (5.4) n (%); Number of patients reporting TRAE: Fatigue ([2]; safety population): 3 (5.4) n (%); Number of patients reporting TRAE: Flatulence ([2]; safety population): 3 (5.4) n (%); Number of patients reporting TRAE: Frequent bowel movements ([2]; safety population): 3 (5.4) n (%); Number of patients reporting TRAE: Gastritis erosive ([2]; safety population): 0 n (%); Number of patients reporting TRAE: Headache ([2]; safety population): 8 (14.3) n (%); Number of patients reporting TRAE: Hematochezia ([2]; safety population): 4 (7.1) n (%); Number of patients reporting TRAE: Nausea ([2]; safety population): 8 (14.3) n (%); Number of patients reporting TRAE: Pruritus ([2]; safety population): 2 (3.6) n (%); Number of patients reporting TRAE: Rash ([2]; safety population): 0 n (%); Number of patients reporting TRAE: Rectal hemorrhage ([2]; safety population): 3 (5.4) n (%); Number of patients reporting TRAE: Thrombocytopenia ([2]; safety population): 1 (1.8) n (%); Number of patients reporting TRAE: Tinnitus ([2]; safety population): 1 (1.8) n (%); Number of patients reporting TRAE: Upper abdominal pain ([2]; safety population): 2 (3.6) n (%); Number of patients reporting TRAE: Vomiting ([2]; safety population): 5 (8.9) n (%); Number of patients reporting TRAEs ([2]; safety population): 31 (55.4) n (%); Number of patients reporting TRSAEs ([2]; safety population): 1 (1.8) n (%); Decrease in tumor putrescine levels (tumor putrescine levels): 90%
